Values of other authors in patent US20020072508A1, “Anti-depressant, stress suppressor and mood improver” (LIPOGEN LTD., priority 2000, published 2002).

System: withdrawal symptoms associated with addiction (cigarettes, alcohol, narcotics)

Substance: phosphatidic acid
- withdrawal symptoms associated with addiction: alleviate withdrawal symptoms
